Inconclusive results and toxic doses are left out. Rule for the calls: active = survival T/C of 150% or more; inactive = T/C below 125% in these data.
Tested on: CD2F1 mice, L1210 leukemia ip, survival T/C
Experiment: NCI In Vivo Anticancer Drug Screen. Data for tumor model L1210 Leukemia (intraperitoneal) in CD2F1 (CDF1) mice
Conditions: higher = longer survival
Outline: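 Mice carrying a transplanted tumor received test compound or vehicle alone. The value is the measurement in the treated group divided by that in the vehicle-treated control group.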

[1] = endpoint: mean survival time, dose: 50.0 mg/kg/injection, schedule: Q01DX009 (ip), vehicle: saline with Tween-80
[2] = endpoint: mean survival time, dose: 100.0 mg/kg/injection, schedule: Q01DX009 (ip), vehicle: saline with Tween-80
[3] = endpoint: mean survival time, dose: 200.0 mg/kg/injection, schedule: Q01DX009 (ip), vehicle: saline with Tween-80
[4] = endpoint: mean survival time, dose: 100.0 mg/kg/injection, schedule: Q04DX003 (ip), vehicle: acetone
[5] = endpoint: mean survival time, dose: 100.0 mg/kg/injection, schedule: Q01DX001 (ip), vehicle: saline with Tween-80
[6] = endpoint: mean survival time, dose: 200.0 mg/kg/injection, schedule: Q01DX001 (ip), vehicle: saline with Tween-80
[7] = endpoint: mean survival time, dose: 100.0 mg/kg/injection, schedule: Q04DX003 (ip), vehicle: saline with Tween-80
[8] = endpoint: mean survival time, dose: 200.0 mg/kg/injection, schedule: Q04DX003 (ip), vehicle: saline with Tween-80
[9] = endpoint: mean survival time, dose: 400.0 mg/kg/injection, schedule: Q04DX003 (ip), vehicle: saline with Tween-80
[10] = endpoint: mean survival time, dose: 100.0 mg/kg/injection, schedule: Q01DX001 (ip), vehicle: saline
[11] = endpoint: mean survival time, dose: 200.0 mg/kg/injection, schedule: Q01DX001 (ip), vehicle: saline
[12] = endpoint: mean survival time, dose: 400.0 mg/kg/injection, schedule: Q01DX001 (ip), vehicle: saline
[13] = endpoint: mean survival time, dose: 25.0 mg/kg/injection, schedule: Q01DX009 (ip), vehicle: saline with Tween-80

Measured: T/C

OC1C2COC(O2)C(O)C1O (centres undefined)
inactive: endpoint: mean survival time, dose: 100.0 mg/kg/injection, schedule: Q01DX009 (ip), vehicle: saline 98 % of control | endpoint: mean survival time, dose: 200.0 mg/kg/injection, schedule: Q01DX009 (ip), vehicle: saline 101 % of control | endpoint: mean survival time, dose: 400.0 mg/kg/injection, schedule: Q01DX009 (ip), vehicle: saline 98 % of control

Br/C1=C/CCCCCC1
inactive: endpoint: mean survival time, dose: 37.5 mg/kg/injection, schedule: Q01DX009 (ip), vehicle: saline 94 % of control | endpoint: mean survival time, dose: 75.0 mg/kg/injection, schedule: Q01DX009 (ip), vehicle: saline 94 % of control | endpoint: mean survival time, dose: 150.0 mg/kg/injection, schedule: Q01DX009 (ip), vehicle: saline 104 % of control

NC(=O)c1ccccc1NC(=O)Nc1ccc(Cl)c(C(F)(F)F)c1
inactive: [1] 87 % of control | [2] 96 % of control | [3] 93 % of control

c1ccc(C2=NN(c3ccccc3)C(c3ccccc3)C2NC2CCCCC2)cc1 (centres undefined)
inactive: [4] 93 % of control | endpoint: mean survival time, dose: 200.0 mg/kg/injection, schedule: Q04DX003 (ip), vehicle: acetone 92 % of control | endpoint: mean survival time, dose: 400.0 mg/kg/injection, schedule: Q04DX003 (ip), vehicle: acetone 97 % of control

CCNC1=C(C)C(=O)c2c(c(COC(N)=O)c3n2CC(NC(C)=O)C3O)C1=O (centres undefined)
inactive: endpoint: mean survival time, dose: 33.0 mg/kg/injection, schedule: Q01DX001 (ip), vehicle: carboxymethylcellulose (CMC) 98 % of control | endpoint: mean survival time, dose: 50.0 mg/kg/injection, schedule: Q01DX001 (ip), vehicle: carboxymethylcellulose (CMC) 98 % of control | endpoint: mean survival time, dose: 75.0 mg/kg/injection, schedule: Q01DX001 (ip), vehicle: carboxymethylcellulose (CMC) 102 % of control

CC(C)C(O)C(C)(C)c1nc2ccccc2[nH]1 (centres undefined)
inactive: [5] 100 % of control | [6] 94 % of control

O=S1(=O)C[CH-]C1.[C-]#[O+].[C-]#[O+].[C-]#[O+].[W].[c-]1[c-][c-][cH-][c-]1
inactive: endpoint: mean survival time, dose: 50.0 mg/kg/injection, schedule: Q04DX002 (ip), vehicle: saline with Tween-80 93 % of control | endpoint: mean survival time, dose: 100.0 mg/kg/injection, schedule: Q04DX002 (ip), vehicle: saline with Tween-80 101 % of control | endpoint: mean survival time, dose: 200.0 mg/kg/injection, schedule: Q04DX002 (ip), vehicle: saline with Tween-80 89 % of control

NC(=O)Oc1cc(OC(N)=O)cc(N(CCCl)CCCl)c1
inactive: endpoint: mean survival time, dose: 12.5 mg/kg/injection, schedule: Q01DX009 (ip), vehicle: other 103 % of control | endpoint: mean survival time, dose: 25.0 mg/kg/injection, schedule: Q01DX001 (ip), vehicle: water 98 % of control | endpoint: mean survival time, dose: 25.0 mg/kg/injection, schedule: Q01DX009 (ip), vehicle: other 114 % of control | endpoint: mean survival time, dose: 50.0 mg/kg/injection, schedule: Q01DX001 (ip), vehicle: water 108 % of control | endpoint: mean survival time, dose: 50.0 mg/kg/injection, schedule: Q01DX009 (ip), vehicle: other 111 % of control | endpoint: mean survival time, dose: 100.0 mg/kg/injection, schedule: Q01DX001 (ip), vehicle: water 108 % of control | endpoint: mean survival time, dose: 100.0 mg/kg/injection, schedule: Q01DX009 (ip), vehicle: other 116 % of control | endpoint: mean survival time, dose: 200.0 mg/kg/injection, schedule: Q01DX001 (ip), vehicle: water 117 % of control | endpoint: mean survival time, dose: 200.0 mg/kg/injection, schedule: Q01DX009 (ip), vehicle: other 104 % of control | endpoint: mean survival time, dose: 400.0 mg/kg/injection, schedule: Q01DX001 (ip), vehicle: water 120 % of control

C[Si](F)(c1cccc2ccccc12)c1cccc2ccccc12
inactive: [2] 93 % of control | [3] 98 % of control | endpoint: mean survival time, dose: 400.0 mg/kg/injection, schedule: Q01DX009 (ip), vehicle: saline with Tween-80 96 % of control

Brc1ccc2c(c1)CCCC2
inactive: [7] 95 % of control | [8] 103 % of control | [9] 93 % of control

Cc1cc(C)c(Sc2c3ccccc3cc3ccccc23)c(C)c1
inactive: [10] 91 % of control | endpoint: mean survival time, dose: 100.0 mg/kg/injection, schedule: Q04DX003 (ip), vehicle: saline 93 % of control | [11] 101 % of control | endpoint: mean survival time, dose: 200.0 mg/kg/injection, schedule: Q04DX003 (ip), vehicle: saline 87 % of control | [12] 100 % of control | endpoint: mean survival time, dose: 400.0 mg/kg/injection, schedule: Q04DX003 (ip), vehicle: saline 95 % of control

CCON(C(C)=O)c1cccc([N+](=O)[O-])c1
inactive: [10] 97 % of control | [11] 100 % of control | [12] 97 % of control

O=C1CN=C(c2ccccc2)O1
inactive: endpoint: median survival time, dose: 50.0 mg/kg/injection, schedule: Q04DX002 (ip), vehicle: saline with Tween-80 100 % of control | endpoint: median survival time, dose: 100.0 mg/kg/injection, schedule: Q04DX002 (ip), vehicle: saline with Tween-80 100 % of control | endpoint: median survival time, dose: 200.0 mg/kg/injection, schedule: Q04DX002 (ip), vehicle: saline with Tween-80 111 % of control | endpoint: median survival time, dose: 400.0 mg/kg/injection, schedule: Q04DX002 (ip), vehicle: saline with Tween-80 100 % of control

O=C(NNc1ccccc1)C(F)(F)F
inactive: [13] 107 % of control | [1] 101 % of control | [4] 93 % of control

C=C(Cl)C(=NC(C)(C)C)Nc1ccccc1C
inactive: endpoint: median survival time, dose: 3.12 mg/kg/injection, schedule: Q01DX009 (ip), vehicle: Klucel (hydroxypropylcellulose) (HPC) 101 % of control | endpoint: median survival time, dose: 6.25 mg/kg/injection, schedule: Q01DX009 (ip), vehicle: Klucel (hydroxypropylcellulose) (HPC) 109 % of control | endpoint: median survival time, dose: 12.5 mg/kg/injection, schedule: Q01DX009 (ip), vehicle: Klucel (hydroxypropylcellulose) (HPC) 118 % of control | endpoint: median survival time, dose: 25.0 mg/kg/injection, schedule: Q01DX009 (ip), vehicle: Klucel (hydroxypropylcellulose) (HPC) 114 % of control | endpoint: median survival time, dose: 50.0 mg/kg/injection, schedule: Q01DX009 (ip), vehicle: Klucel (hydroxypropylcellulose) (HPC) 114 % of control | endpoint: median survival time, dose: 50.0 mg/kg/injection, schedule: Q01DX009 (ip), vehicle: saline 103 % of control | endpoint: median survival time, dose: 100.0 mg/kg/injection, schedule: Q01DX009 (ip), vehicle: saline 108 % of control | endpoint: median survival time, dose: 200.0 mg/kg/injection, schedule: Q01DX009 (ip), vehicle: saline 111 % of control

CC(=O)Oc1cc(Cl)c(Cl)cc1Cl
inactive: [5] 108 % of control | [6] 97 % of control | endpoint: mean survival time, dose: 400.0 mg/kg/injection, schedule: Q01DX001 (ip), vehicle: saline with Tween-80 94 % of control

Cl/C=C(\Cl)CCl
inactive: [13] 91 % of control | [1] 96 % of control | [2] 94 % of control

CCC(=O)Oc1ccc(C2N(Cc3ccc(N(C)C)cc3)CCCN2Cc2ccc(N(C)C)cc2)cc1
inactive: [7] 103 % of control | [3] 89 % of control | [8] 92 % of control

CC(=O)CCN1Cc2cc3c(cc2C(O)C1)OCO3 (centres undefined)
inactive: endpoint: mean survival time, dose: 75.0 mg/kg/injection, schedule: Q01DX001 (ip), vehicle: saline 104 % of control | endpoint: mean survival time, dose: 150.0 mg/kg/injection, schedule: Q01DX001 (ip), vehicle: saline 97 % of control | endpoint: mean survival time, dose: 300.0 mg/kg/injection, schedule: Q01DX001 (ip), vehicle: saline 95 % of control

NCCCN1CCN(CCCN)CC1
inactive: endpoint: mean survival time, dose: 100.0 mg/kg/injection, schedule: Q04DX002 (ip), vehicle: saline 98 % of control | endpoint: mean survival time, dose: 200.0 mg/kg/injection, schedule: Q04DX002 (ip), vehicle: saline 91 % of control | endpoint: mean survival time, dose: 400.0 mg/kg/injection, schedule: Q04DX002 (ip), vehicle: saline 98 % of control

Cc1ccc(S(=O)(=O)OCC(OS(=O)(=O)c2ccc(C)cc2)C(O)C(O)C(O)CO)cc1 (centres undefined)
inactive: [7] 97 % of control | [8] 91 % of control | [9] 91 % of control

BrCCCCCCCCCCC1(c2ccccc2)OCCO1
inactive: endpoint: mean survival time, dose: 100.0 mg/kg/injection, schedule: Q04DX003 (ip), vehicle: Klucel (hydroxypropylcellulose) (HPC) 90 % of control | endpoint: mean survival time, dose: 200.0 mg/kg/injection, schedule: Q04DX003 (ip), vehicle: Klucel (hydroxypropylcellulose) (HPC) 94 % of control | endpoint: mean survival time, dose: 400.0 mg/kg/injection, schedule: Q04DX003 (ip), vehicle: Klucel (hydroxypropylcellulose) (HPC) 95 % of control

O=C(CCc1ccc(C(=O)C[n+]2ccccc2)cc1)C[n+]1ccccc1
inactive: endpoint: mean survival time, dose: 0.5 mg/kg/injection, schedule: Q04DX003 (ip), vehicle: saline 104 % of control | endpoint: mean survival time, dose: 1.0 mg/kg/injection, schedule: Q04DX003 (ip), vehicle: saline 101 % of control | endpoint: mean survival time, dose: 2.0 mg/kg/injection, schedule: Q04DX003 (ip), vehicle: saline 95 % of control

From PubChem BioAssay AID256 (DTP/NCI, 2004)
